Laboratory results from patent publication US7807841B2, “Spiro-containing compounds and compositions as modulators of steroid hormone nuclear receptors” (IRM LLC, priority 2005, dated 2010).

Biological target: T1, Mineralocorticoid Receptor (MR) (Homo sapiens, UniProt P08235)
T1 construct: expressed in transfected cells; host or cells: 293T cells (ATCC)
T1 sequence (P08235 672-984): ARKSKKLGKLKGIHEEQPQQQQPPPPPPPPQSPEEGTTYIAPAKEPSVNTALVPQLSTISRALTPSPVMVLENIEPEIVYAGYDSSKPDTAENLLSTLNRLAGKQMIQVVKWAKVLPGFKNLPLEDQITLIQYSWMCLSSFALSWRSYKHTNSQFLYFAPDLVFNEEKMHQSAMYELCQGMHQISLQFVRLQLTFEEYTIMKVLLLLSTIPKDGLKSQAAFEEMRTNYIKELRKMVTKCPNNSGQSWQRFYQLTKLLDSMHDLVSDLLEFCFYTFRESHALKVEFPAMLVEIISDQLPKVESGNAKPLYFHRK
Assay: Functional assay of mineralocorticoid receptor antagonism (Gal4-MR mammalian two hybrid luciferase reporter, 293T cells)
Type: cell-based
Conditions: antagonism of aldosterone (0.4 nM)-induced MR activity
Description: The MR antagonist activity of the compounds is determined in a mammalian two hybrid reporter system. The N-terminus of MR (MR-NT, sequence coding amino acid 1-597) is fused to the activation domain of the VP16 gene. The ligand binding domain of MR (MR-LBD, sequence encoding amino acid 672-984) is fused to the DNA binding domain of the yeast Gal4 gene. The MR gene is cloned from a human kidney cDNA library with PCR.
The assay is performed in 384 well plates. Briefly, 293T cells (ATCC) are transfected with expression vectors for Gal-4-MR-LBD and VP16-MR NT, and a luciferase reporter vector containing Gal4 binding sequence (pG5-Luc). Cells are plated in 384 well plates immediately after transfection (approximately 3×10^4 cells/well in 50 μl medium). The medium is supplemented with 3% charcoal-dextran treated fetal bovine serum (Hyclone). Twenty four hours after transfection, compounds prepared in DMSO are transferred to the cells. The cells are then stimulated with 0.4 nM final concentration of aldosterone (Acros) and incubated at 37° C. for another 24 hours before the luciferase activity is assayed with 20 μl of Bright-Glo (Promega) using a luminometer (CLIPR). The expression of luciferase is used as an indicator of aldosterone-induced MR trans-activation. Each compound is tested in duplicates with 12-concentration titration. IC50 values (defined as the concentration of test compound required to antagonize 50% of aldosterone-induced MR activity) are determined from the dose-response curve.

Row | Compound | IC50 [nM]
1 | O=C1CCC2(c3ccc(Br)cc3)OC3(CN12)c1ccccc1C=Cc1ccccc13 (centres unmarked) [FRS-7] | < 100
2 | O=C1CCC2(c3ccn(S(=O)(=O)c4ccccc4)c3)OC3(CN12)c1ccccc1C=Cc1ccccc13 (centres unmarked) [FRS-12] | 100 to 1000
3 | C1=Cc2ccccc2C2(CN=C(c3ccccc3)O2)c2ccccc21 [OXS-2] | 100 to 1000

Second part, the compound after the results:

Row | IC50 [nM] | Compound
4 | 100 to 1000 | COc1ccc(C2=NCC3(O2)c2ccccc2C=Cc2ccccc23)cc1 [OXS-3]
5 | 100 to 1000 | CC1(C)OC2(CN1C(=O)c1ccccc1)c1ccccc1C=Cc1ccccc12 [SOXS-5]
